Measured values published in paper PMC5573760 (Cancer Chemotherapy and Pharmacology, 2017).

Columns and labels:
[1] = Mass balance: excretion of radioactivity, copanlisib and metabolites in urine and feces; type: in vivo, human; settings: 6 subjects; for Amount excreted in feces as this component, arithmetic mean (range) / Amount excreted in urine as this component, arithmetic mean (range): HPLC with off-line radioactivity detection; for Amount of dose recovered as this component in urine and feces combined: urine plus feces
Description: After pooling and homogenization of urine and feces samples per time interval, aliquots were stored at −20 °C for total radioactivity determination and at −70°C for metabolic profiling (including blood/plasma samples). For determination of total radioactivity, samples were analyzed with a Perkin Elmer Tri-Carb™ 3100 TR liquid scintillation analyzer (Perkin Elmer, Waltham, MA, USA) with quenching correction. For metabolite profiling, plasma samples were treated with a mixture of acetonitrile (ACN) +0.2% acetic acid, after shaking and centrifugation, the supernatant was concentrated. Urine and feces samples were treated with solid-phase extraction (Waters HLB 30 mg, 1 mL, Waters, Milford, MA, USA) and liquid–liquid extraction (ACN + 0.2% trifluoroacetic acid/water, 80:20 volume/volume), respectively. Subsequently samples from plasma, urine and feces were analyzed by HPLC-LSC on Synergi Polar 4 µm 150 × 2 mm (Phenomenex, Aschaffenburg, Germany) with off-line radioactivity detection by Microbeta^2™ Plus liquid scintillation counter with Ultima Flo™ AP scintillation fluid (Packard Instrument BV, Groningen, The Netherlands).
Metabolite patterns in plasma, urine and feces were studied by the HPLC method with off-line radioactivity detection described above.
A similar approach has been described earlier.

clinical target (PI3K) = system: clinical target (PI3K); set-up: method as in Bayer AG, data on file; settings: ref Bayer AG, data on file; cited from earlier work
clinical = settings: for Tmax: male, human, in vivo, iv, t max
Description: All subjects gave written informed consent; the study was conducted at PRA Health Sciences (Zuidlaren, The Netherlands) in accordance with the Declaration of Helsinki and was approved by an accredited institutional ethics committee (Medisch Ethische Toetsings Commissie, Assen, The Netherlands).
Subjects remained fasting until 2-h after the end of the infusion. Volunteers stayed in-house until 14 days after the application and subsequently urine and feces were collected for 24-h on Day 16, 20, 27 and 34 if necessary, cf. below.
Urine was collected pre-dose, at 0–12-h and 12–24 h after the start of the infusion and thereafter over 24-h intervals on Day 2 to Day 14 as well as on Day 16, 20, 27 and 34 (±1 day). Cumulative 24-h fecal samples were collected from Day 1 (day of infusion) to Day 14 and as well as on Day 16, 20, 27 and 34 (±1 day). […] The excreted radioactivity between ambulant visits during the prolongation phase of the clinical study was calculated using interpolation to get a more realistic total excretion value of all subjects (see "Pharmacokinetic analysis").
All samples were frozen at −70 °C and analyzed within 60 days of sample collection.
For blood/plasma ratio determination, total radioactivity in urine and feces well as data from HPLC analysis data from radioactivity measurement by liquid scintillation counting (LSC) were considered. The amount of radioactivity recovered in the excreta (A E) was related to the administered radioactive dose to establish the radioactive balance. Arithmetic means and coefficients of variation (CV) were calculated for these percentages. […] Cumulative excretion was calculated as sum of the collection intervals. The elimination of the total radioactivity in urine and feces for time-points beyond day 14 was performed by log-linear extrapolation between analyzed time-points. Amounts of radioactivity excreted in urine and feces between two ambulant visits were calculated per interpolated day by linear interpolation of log-transformed excretion data separately per matrix (lnA E(interpolated day) = Δdays × [lnA E(Visit i + 1) − lnA E(Visit i)]/[day (Visit i + 1) − day (Visit i)] + lnA E(Visit i), with A E given as amount of radioactivity excreted in matrix per day and Δdays being the difference between the calculated day and the last available visit with A E > 0). In case no feces sample was provided on an ambulant visit, this visit was neglected for interpolation. A similar approach has been described earlier. The concentration/amount for each component of each sample/time-point was calculated by multiplying the total radioactivity concentration/amount of each sample with %-area of each component obtained after off-line HPLC separation. The amount of radioactivity in urine and feces at late time-points where no component was detected was distributed in the same percentage to the component (s) present at the time-point before.
Compartment-free analysis was performed employing WinNonlin software (version 5.3, Pharsight Certara, Princton, NJ, USA).
Pharmacokinetic parameters were evaluated by descriptive data analysis without formal hypothesis testing by calculating either medians (t max, t last) or geometric means and %CV (remaining parameters). Excretion data (urine, feces, total) were evaluated by arithmetic means.

Structure (SMILES)	Amount excreted in feces as this component, arithmetic mean (range) [1]	Amount of dose recovered as this component in urine and feces combined [1]	Amount excreted in urine as this component, arithmetic mean (range) [1]	Affinity to the clinical target relative to parent compound (clinical target (PI3K))	Tmax (clinical; median) [h]	Tmax (clinical; range) [h]	Range of AUC (0–t last) (LC–MS) (clinical; plasma, t last defined by the time-point with detectable radioactivity, range of 6 subjects)
COc1c(OCCCN2CCOCC2=O)ccc2c1N=C(NC(=O)c1cnc(N)nc1)N1CCN=C21 [M1]	6.39 (4.34–8.66) % of dose	11.1 % of dose	4.47 (2.53–6.79) % of dose	same order of magnitude as found for the parent compound	6	3 to 10	4.36–37.8 ng-Eq·h/mL
COc1c(OCCC(=O)O)ccc2c1N=C(NC(=O)c1cnc(N)nc1)N1CCN=C21 [M2]	11.8 (9.91–13.0) % of dose	–	0.34 (0.10–0.52) % of dose	–	–	–	–
COc1c(OCCCNCCO)ccc2c1N=C(NC(=O)c1cnc(N)nc1)N1CCN=C21 [M3]	7.32 (5.61–11.6) % of dose	–	0.32 (0–0.62) % of dose	–	–	–	–
COc1c(O)ccc2c1N=C(NC(=O)c1cnc(N)nc1)N1CCN=C21 [M4]	5.61 (1.74–9.53) % of dose	–	0.15 (0.04–0.32) % of dose	–	–	–	–
COc1c(OCCCO)ccc2c1N=C(NC(=O)c1cnc(N)nc1)N1CCN=C21 [M15]	–	< 2 % of dose	–	–	–	–	–
COc1c(OCCCN(C=O)CCO)ccc2c1N=C(NC(=O)c1cnc(N)nc1)N1CCN=C21 [M21]	–	< 2 % of dose	–	–	–	–	–
